The record followed here is publication PMC10035947, “Development of novel anilinoquinazoline-based carboxylic acids as non-classical carbonic anhydrase IX and XII inhibitors” (Journal of Enzyme Inhibition and Medicinal Chemistry, 2023).

For one data set, the system named is MDA-MB-231. The data set can be described thus: NCI SRB assay. It counts as cell-based. Particulars: for GI%: MDA-MB-231, 10 μM; for Growth Percent: 1.00E-5 Molar; for CC50: read-out: LC50 (the source's name). (Sulforhodamine B stains cellular protein and so reports cell mass.)
A further data set deals with PC-3. The data set can be described thus: NCI SRB assay. The note with it: for GI%: PC-3, 10 μM; for Growth Percent: PC-3, 1.00E-5 Molar; for CC50: read-out: LC50 (the source's name). It counts as cell-based, human.
In the next data set the target is T1, hCA II (Homo sapiens, UniProt P00918).
T1 construct: made in house
The experiment in a line: stopped flow CO2 hydrase assay. It is filed as biochemical. The note with it: mean from 3 assays. As for the experimental part:
Carbonic anhydrase inhibition assay
The carbonic anhydrase catalyzed CO2 hydration actions for the quinazoline-based carboxylic acid derivatives (6a-c, 7a-c and 8a-c) were assayed utilizing an instrument of Applied Photophysics stopped-flow, as described previously. The enzymes are recombinant proteins prepared in our lab. Phenol red (at a concentration of 0.2 mM) has been used as indicator, working at the absorbance maximum of 557 nm, with 20 mM Hepes (pH 7.5) as buffer, and 20 mM Na2SO4 (for maintaining constant the ionic strength), following the initial rates of the CA- […]
1.7 to 17 mM for the determination of the kinetic parameters and inhibition constants. For each inhibitor at least six traces of the initial 5-10% of the reaction have been used for determining the initial velocity. The uncatalyzed rates were determined in the same manner and subtracted from the total observed rates. Stock solutions of inhibitor (0.1 mM) were prepared in distilled-deionized water and dilutions up to 0.01 nM were done thereafter with the assay buffer. Inhibitor and enzyme solutions were preincubated together for 15 min at room temperature prior to assay, in order to allow for the formation of the E-I complex. The inhibition constants were obtained by non-linear least-squares methods using PRISM 3 and the Cheng-Prusoff equation, and represent the mean from at least three different determinations.

In a further data set the test system is UO-31. The data set can be described thus: NCI SRB assay. It is filed as cell-based, human. The note with it: for GI%: UO-31, 10 μM; for Growth Percent: UO-31, 1.00E-5 Molar; for CC50: read-out: LC50 (the source's name).
A further data set concerns SK-OV-3. The data set can be described thus: NCI SRB assay. It is filed as cell-based, human. The note with it: for GI%: SK-OV-3, 10 μM; for Growth Percent: SK-OV-3, 1.00E-5 Molar; for CC50: read-out: LC50 (the source's name).
For another data set, the system named is SR. The experiment in a line: NCI SRB assay. It is filed as cell-based, human. Particulars: for GI%: 10 μM; for Growth Percent: 1.00E-5 Molar.
The subject of the next data set is NCI-H23. The experiment in a line: NCI SRB assay. It is filed as cell-based, human. The note with it: for GI%: NCI-H23, 10 μM; for Growth Percent: NCI-H23, 1.00E-5 Molar.
In another data set the test system is HOP-62. The data set can be described thus: NCI SRB assay. It counts as cell-based, human. The note with it: for GI%: HOP-62, 10 μM; for Growth Percent: HOP-62, 1.00E-5 Molar.
The test system of another data set is RXF 393. The experiment in a line: NCI SRB assay. It is filed as cell-based, human. The note with it: for CC50: read-out: LC50 (the source's name).
[1] abbreviates: Homo sapiens, UO-31, UO-31, 5-dose.

Read-outs that look alike come from different tables or passages of the source.

For `Cc1cccc(-c2nc(Nc3ccccc3C(=O)O)c3ccccc3n2)c1` [6a, 2-((2-(m-Tolyl)quinazolin-4-yl)amino)benzoic acid], the GI% with MDA-MB-231 worked out at 34%; in the data set with PC-3, 71%; in the data set on UO-31, 69%; in the data set on SK-OV-3, 24%; in the data set on SR it was 77%; in the data set with NCI-H23 it was 79%. This molecule gave a GI% in the data set on HOP-62 of 54%. For the same molecule, the “Growth Percent” value with MDA-MB-231 (MDA-MB-231/ATCC) amounted to 66.08%; in the data set on PC-3 it was 29.47%; in the data set on UO-31, 31.01%; in the data set with SK-OV-3, 76.74%; in the data set on SR, 23.03%; with NCI-H23 it was 20.79%. The “Growth Percent” value in the data set on HOP-62 is reported as 46.18%. The affinity at hCA II, expressed as Ki, was 85.2 µM.

`Cc1ccc(-c2nc(Nc3ccccc3C(=O)O)c3ccccc3n2)cc1` [6b, 2-((2-(p-Tolyl)quinazolin-4-yl)amino)benzoic acid]: the GI50 (commonly the concentration at which growth is held to half of that of the control) with MDA-MB-231 (Homo sapiens, MDA-MB-231) came to 17.2 µM; in the data set on PC-3 (Homo sapiens, PC-3, 5-dose), 12.7 µM; with UO-31 (setting [1]), 7.33 µM; with UO-31 (UO-31, 5-dose) it was 7.3 µM; with SK-OV-3 (Homo sapiens, SK-OV-3, 5-dose) it was 11.9 µM; in the data set on SR (Homo sapiens, 5-dose) it was 10.3 µM. The GI50 was determined as 13.1 µM in the data set with RXF 393 (Homo sapiens, RXF 393, 5-dose); 15.7 µM in the data set with NCI-H23 (Homo sapiens, NCI-H23, 5-dose); 10.8 µM in the data set with HOP-62 (Homo sapiens, HOP-62, 5-dose). The CC50 with MDA-MB-231 (Homo sapiens, MDA-MB-231, MDA-MB-231, 5-dose) was below 100 µM; in the data set with MDA-MB-231 (Homo sapiens, MDA-MB-231, MDA-MB-231/ATCC, 5-dose), above 100 µM; in the data set with PC-3 (Homo sapiens, PC-3, PC-3, 5-dose), above 100 µM; in the data set on PC-3 (PC-3, 5-dose), below 100 µM; in the data set on UO-31 (setting [1]), above 100 µM; with UO-31 (UO-31, 5-dose) it was below 100 µM. Further, the CC50 with SK-OV-3 (Homo sapiens, SK-OV-3, SK-OV-3, 5-dose) is above 100 µM; in the data set on SK-OV-3 (SK-OV-3, 5-dose), below 100 µM; in the data set on RXF 393 (Homo sapiens, RXF 393, RXF 393, 5-dose), above 100 µM; with RXF 393 (RXF 393, 5-dose) it was below 100 µM. For the same molecule, the GI% came to 65% in the data set on MDA-MB-231; 84% in the data set with PC-3; 87% in the data set on UO-31; 69% in the data set with SK-OV-3; 81% in the data set on SR; 104% with NCI-H23. In the data set on HOP-62, this molecule had a GI% of 72%. Also, the TGI in the data set with MDA-MB-231 (MDA-MB-231, 5-dose) is given as 59.7 µM; in the data set with MDA-MB-231 (MDA-MB-231/ATCC, 5-dose) it was 5.97E-5 Molar; with PC-3 (PC-3, 5-dose) it was below 100 µM; with PC-3 (PC-3, 5-dose, listed as D - 835857), above 1.00E-4 Molar; in the data set with UO-31 (UO-31, 5-dose), 77.9 µM; in the data set on UO-31 (UO-31, 5-dose, listed as D - 835857), 7.79E-5 Molar. The TGI with SK-OV-3 (SK-OV-3, 5-dose) is 55.3 µM; with SK-OV-3 (SK-OV-3, 5-dose, listed as D - 835857) it was 5.53E-5 Molar; in the data set on SR (5-dose), below 100 µM; in the data set on SR (5-dose, listed as D - 835857), above 1.00E-4 Molar; with RXF 393 (RXF 393, 5-dose) it was 65.9 µM; in the data set with RXF 393 (RXF 393, 5-dose, listed as D - 835857), 6.59E-5 Molar. Besides, the TGI with NCI-H23 (NCI-H23, 5-dose) amounted to 44.4 µM; with NCI-H23 (NCI-H23, 5-dose, listed as D - 835857) it was 4.44E-5 Molar; with HOP-62 (HOP-62, 5-dose) it was 33.7 µM; in the data set on HOP-62 (HOP-62, 5-dose, listed as D - 835857), 3.37E-5 Molar. In addition, the “Growth Percent” value is on record as 35.40% in the data set on MDA-MB-231 (MDA-MB-231/ATCC); 15.75% with PC-3; 12.56% with UO-31; 31.32% with SK-OV-3; 18.56% with SR; -4.11% with NCI-H23. The “Growth Percent” value in the data set with HOP-62 came out at 28.29%. Also, on hCA II, the Ki (usually a measure of affinity in units of concentration, obtained from inhibition or displacement) stood at 48.2 µM. Besides, the LC50 (50% lethal concentration) in the data set with SR (5-dose) is below 100 µM; in the data set on SR (Homo sapiens, 5-dose), above 100 µM. Also, the LC50 (as a rule, the concentration that kills 50% of the test population) in the data set with NCI-H23 (Homo sapiens, NCI-H23, NCI-H23, 5-dose) was above 100 µM; with NCI-H23 (NCI-H23, 5-dose), below 100 µM; in the data set on HOP-62 (HOP-62, 5-dose), below 100 µM; in the data set on HOP-62 (Homo sapiens, HOP-62, HOP-62, 5-dose) it was above 100 µM.

With `COc1ccc(-c2nc(Nc3ccccc3C(=O)O)c3ccccc3n2)cc1` [6c, 2-((2–(4-Methoxyphenyl)quinazolin-4-yl)amino)benzoic acid], the GI% in the data set with PC-3 is recorded as 60%; in the data set on SK-OV-3, 53%; with NCI-H23, 38%; in the data set with HOP-62, 49%. For the same molecule, the “Growth Percent” value worked out at 40.04% in the data set with PC-3; 47.19% with SK-OV-3; 68.31% in the data set with RXF 393 (RXF 393, 1.00E-5 Molar); 62.10% in the data set with NCI-H23; 51.05% with HOP-62. Also, on hCA II, the affinity, expressed as Ki, was 83.1 µM.

As for `Cc1ccc(-c2nc(Nc3cccc(C(=O)O)c3)c3ccccc3n2)cc1` [7b, 3-((2-(p-Tolyl)quinazolin-4-yl)amino)benzoic acid], the “Growth Percent” value with MDA-MB-231 (MDA-MB-231/ATCC) was determined as 95.55%; in the data set on PC-3, 80.52%; in the data set with UO-31, 48.97%; with SK-OV-3, 89.56%; in the data set on SR it was 58.68%; with NCI-H23, 95.42%. In the data set on HOP-62, the “Growth Percent” value is given as 84.19%. Also, the GI% entry is recorded as “– (Only GI% higher than 20% are shown)” in the data set on PC-3; 51% in the data set on UO-31; “– (Only GI% higher than 20% are shown)” in the data set on SK-OV-3; 41% in the data set with SR; “– (Only GI% higher than 20% are shown)” with NCI-H23; “– (Only GI% higher than 20% are shown)” in the data set on HOP-62. The molecule also displayed a Ki on hCA II of 41.7 µM.

`Cc1cccc(-c2nc(Nc3ccc(C(=O)O)cc3)c3ccccc3n2)c1` [8a, 4-((2-(m-Tolyl)quinazolin-4-yl)amino)benzoic acid]: the “Growth Percent” value in the data set on MDA-MB-231 (MDA-MB-231/ATCC) is 93.31%; in the data set with PC-3, 83.31%; in the data set on UO-31, 45.85%; with SK-OV-3, 108.70%; in the data set on SR, 67.75%; in the data set on NCI-H23, 99.04%. In the data set on HOP-62, the “Growth Percent” value is given as 95.14%. Besides, the GI% entry was “– (Only GI% higher than 20% are shown)” in the data set on PC-3; 54% in the data set on UO-31; “– (Only GI% higher than 20% are shown)” with SK-OV-3; 32% with SR; “– (Only GI% higher than 20% are shown)” in the data set with HOP-62. The molecule also returned a Ki at hCA II of 9.3 µM.

As for `Cc1ccc(-c2nc(Nc3ccc(C(=O)O)cc3)c3ccccc3n2)cc1` [8b, 4-((2-(p-Tolyl)quinazolin-4-yl)amino)benzoic acid], the “Growth Percent” value in the data set on MDA-MB-231 (MDA-MB-231/ATCC) is on record as 87.83%; in the data set with PC-3, 77.04%; with UO-31 it was 41.73%; with SK-OV-3, 99.63%; in the data set with SR, 61.50%; in the data set on NCI-H23 it was 87.14%. Further, in the data set with HOP-62, the “Growth Percent” value stood at 88.98%. The GI% in the data set with PC-3 is reported as 23%; with UO-31, 58%; with SK-OV-3 it was “– (Only GI% higher than 20% are shown)”; in the data set on SR, 38%; in the data set on NCI-H23 it was “– (Only GI% higher than 20% are shown)”; in the data set on HOP-62, “– (Only GI% higher than 20% are shown)”. For the same molecule, on hCA II, the inhibitory constant (Ki) is 3.9 µM.
